In ChEMBL document CHEMBL4699423, “Photocontrolled activation of small molecule cancer therapeutics” (RSC Med Chem, 2020):
pEC50: −log10 of the molar value.

What was measured:
[1] = test system: MDA-MB-231; test: Cytotoxicity against human MDA-MB-231 cells in dark; assay type: functional, cell-based
[2] = test system: MDA-MB-231; test: Cytotoxicity against human MDA-MB-231 cells; assay type: functional, cell-based
[3] = test system: MDA-MB-468; test: Cytotoxicity against human MDA-MB-468 cells; assay type: functional; conditions: read-out: LD50 (the source's name)
[4] = Cytotoxicity against human MCF-10A cells; assay type: cell-based; conditions: read-out: LD50 (the source's name)
[5] = test system: HCT-116; test: Cytotoxicity against human HCT-116 cells; assay type: functional; conditions: read-out: LD50 (the source's name)

Row | SMILES | pEC50 [1] | pEC50 [2] | CC50 [3] | CC50 [4] | CC50 [5]
1 | COc1ccc(/N=N/c2cc(OC)c(OC)c(OC)c2)cc1O | 4.42 |  |  |  | 
2 | COc1ccc(/N=N\c2cc(OC)c(OC)c(OC)c2)cc1O |  | 6.30 |  |  | 
3 | CC(C)C[C@H](NC(=O)[C@@H](NC(=O)c1ccc(/N=N\c2ccc(-c3ccccc3)cc2)cc1)[C@@H](C)O)B1OC2C[C@@H]3C[C@H](C2O1)C3(C)C (stereo partly drawn) |  |  | 1030 nM | 144 nM | 212 nM
4 | CC(C)C[C@H](NC(=O)[C@@H](NC(=O)c1ccc(/N=N/c2ccc(-c3ccccc3)cc2)cc1)[C@@H](C)O)B1OC2C[C@@H]3C[C@H](C2O1)C3(C)C (stereo partly drawn) |  |  | 683 nM | > 5000 nM | 246 nM
